24 molecules from patent US20220396565A1 (Hoffmann-La Roche Inc., priority 2020, published 2022) can be followed below.

What is called IC90 is the concentration at which the effect reaches the 90% level.

Structures can show the parent of a compound that is named as a salt.

For the first test, the system named is Acinetobacter baumannii ATCC17978. Put plainly: Antimicrobial susceptibility testing: 90% growth inhibitory concentration (IC90) determination, Iso-Sensitest broth. The class given is cell-based. The following applies: 90% growth inhibitory concentration, Acinetobacter baumannii ATCC17978, Iso-Sensitest broth; read-out: ATCC 17978 IC90. Summed up: (§1)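 Twofold serial dilutions (e.g. 10 to 0.02 μM final) were tested in Iso-Sensitest broth against ~5×10^(5) CFU/ml at 35±2 °C. OD600 was read every 20 min over 16 h. IC90 was derived from growth inhibition during the logarithmic phase.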
Turning to `COc1ccc(-c2cnc(C(=O)Nc3ccc(C(=O)N4CCC(CN)CC4)c(Cl)c3)n2C)c(F)c1F` [Example 16, N-[4-[4-(aminomethyl)piperidine-1-carbonyl]-3-chloro-phenyl]-5-(2,3-difluoro-4-methoxy-phenyl)-1-methyl-imidazole-2-carboxamide trifluoroacetate], the IC90 is 300 nM.

With `CCc1cc(NC(=O)c2ncc(-c3ccc(OC)c(F)c3F)n2C)ccc1C(=O)N1CCC(Cc2nc(C3CCC3)no2)CC1` [Example 27, N-[4-[4-[(3-cyclobutyl-1,2,4-oxadiazol-5-yl)methyl]piperidine-1-carbonyl]-3-ethyl-phenyl]-5-(2,3-difluoro-4-methoxy-phenyl)-1-methyl-imidazole-2-carboxamide], the IC90 amounted to 5700 nM.

Consider `Cn1c(-c2ccc(OCC#N)c(F)c2F)cnc1C(=O)Nc1ccc(C(=O)N2CCC(C(=O)N3CCOC(CN)C3)CC2)c(Cl)c1` (stereo not drawn) [Example 73, N-(4-(4-(2-(aminomethyl)morpholine-4-carbonyl)piperidine-1-carbonyl)-3-chlorophenyl)-5-(4-(cyanomethoxy)-2,3-difluorophenyl)-1-methyl-1H-imidazole-2-carboxamide 2,2,2-trifluoroacetate], for which the concentration for an effect of 90% (IC90) came to 60 nM.

Consider `Cn1c(-c2ccc(OCC#N)c(F)c2F)cnc1C(=O)Nc1ccc(C(=O)N2CCC(C(=O)N3CCOCC3)CC2)c(Cl)c1` [Example 74, N-(3-chloro-4-(4-(morpholine-4-carbonyl)piperidine-1-carbonyl)phenyl)-5-(4-(cyanomethoxy)-2,3-difluorophenyl)-1-methyl-1H-imidazole-2-carboxamide], for which the IC90 stood at 100 nM.

For `Cn1c(-c2ccc(OCC#N)c(F)c2F)cnc1C(=O)Nc1ccc(C(=O)N2CCC(C(=O)N3CCS(=O)(=O)CC3)CC2)c(Cl)c1` [Example 75, N-(3-chloro-4-(4-(1,1-dioxidothiomorpholine-4-carbonyl)piperidine-1-carbonyl)phenyl)-5-(4-(cyanomethoxy)-2,3-difluorophenyl)-1-methyl-1H-imidazole-2-carboxamide], the concentration for an effect of 90% (IC90) was 100 nM.

Consider `Cn1c(-c2ccc(OCC#N)c(F)c2F)cnc1C(=O)Nc1ccc(C(=O)N2CCC(C(=O)N3CCSCC3)CC2)c(Cl)c1` [Example 76, N-(3-chloro-4-(4-(thiomorpholine-4-carbonyl)piperidine-1-carbonyl)phenyl)-5-(4-(cyanomethoxy)-2,3-difluorophenyl)-1-methyl-1H-imidazole-2-carboxamide], for which the IC90 stood at 210 nM.

For the molecule `Cc1cc(NC(=O)c2ncc(-c3ccc(OCC#N)c(F)c3F)n2C)ccc1C(=O)N1CCC(C(=O)N2CCS(=O)(=O)CC2)CC1` [Example 77, 5-(4-(cyanomethoxy)-2,3-difluorophenyl)-N-(4-(4-(1,1-dioxidothiomorpholine-4-carbonyl)piperidine-1-carbonyl)-3-methylphenyl)-1-methyl-1H-imidazole-2-carboxamide], the IC90 is 170 nM.

The subject of another test is Acinetobacter baumannii ATCC17961. The test is described as above. In kind it is cell-based. The following applies: 90% growth inhibitory concentration, Acinetobacter baumannii ATCC17961, Iso-Sensitest broth; formate; read-out: ATCC 17961 IC90. Summed up:
as §1
As to `COc1ccc(-c2cnc(C(=O)Nc3ccc(C(=O)N4CCN(C(=O)N[C@H]5CNC[C@@H]5O)CC4)c(Cl)c3)n2C)c(F)c1F` [Example 284, 4-[2-chloro-4-[[5-(2,3-difluoro-4-methoxy-phenyl)-1-methyl-imidazole-2-carbonyl]amino]benzoyl]-N-[(3S,4S)-4-hydroxypyrrolidin-3-yl]piperazine-1-carboxamide formate], the IC90 is 80 nM.

The test is the same for the next values; noted with them: 90% growth inhibitory concentration, Acinetobacter baumannii ATCC17961, Iso-Sensitest broth; read-out: ATCC 17961 IC90.
Consider “N-(azetidin-3- ylmethyl)-1-[2-chloro- 4-[[5-[4- (cyanomethoxy)-2,3- difluoro-phenyl]-1- methyl-imidazole-2- carbonyl]amino]benzoyl] piperidine-4- carboxamide trifluoroacetate [Example 264]”, for which the concentration for an effect of 90% (IC90) is 90 nM.

Staying with this test, now noted: Acinetobacter baumannii, ATCC17961, 90% growth inhibitory concentration, Acinetobacter baumannii ATCC17961, Iso-Sensitest broth; read-out: ATCC 17961 IC90.
On to `Cn1c(-c2ccc(OCC#N)c(F)c2F)cnc1C(=O)Nc1ccc(C(=O)N2CCN(C(=O)N[C@H]3CNC[C@@H]3O)CC2)c(Cl)c1` [Example 282], for which the IC90 was 60 nM.

For the molecule `COc1ccc(-c2cnc(C(=O)Nc3ccc(C(=O)N4CCN(C(=O)N[C@H]5CNC[C@@H]5O)CC4)c(Cl)c3)n2C)c(F)c1F` [Example 283, 4-[2-chloro-4-[[5-(2,3-difluoro-4-methoxy-phenyl)-1-methyl-imidazole-2-carbonyl]ami-no]benzoyl]-N-[(3R,4R)-4-hydroxypyrrolidin-3-yl]piperazine-1-carboxamide formate], the IC90 was determined as 40 nM.

Turning to `COc1ccc(-c2cnc(C(=O)Nc3ccc(C(=O)N4CCN(C(=O)N[C@H]5CNC[C@@H]5O)CC4)c(C)c3)n2C)c(F)c1F` [Example 285, 4-[4-[[5-(2,3-difluoro-4-methoxy-phenyl)-1-methyl-imidazole-2-carbonyl]amino]-2-methyl-benzoyl]-N-[(3S,4S)-4-hydroxypyrrolidin-3-yl]piperazine-1-carboxamide formate], the IC90 was found to be 100 nM.

With `C#CCNCCCNC(=O)C1CCN(C(=O)c2ccc(NC(=O)c3ncc(-c4ccc(OC)c(F)c4F)n3C)cc2CC)CC1` [Example 286, 1-[4-[[5-(2,3-difluoro-4-methoxy-phenyl)-1-methyl-imidazole-2-carbonyl]amino]-2-ethyl-benzoyl]-N-[3-(prop-2-ynylamino)propyl]piper-idine-4-carboxamide], the IC90 came to 180 nM.

As to `Cn1c(-c2ccc(OC(F)F)c(F)c2F)cnc1C(=O)Nc1ccc(C(=O)N2CCN(C(=O)C3CCN(CC(N)=O)CC3)CC2)c(Cl)c1` [Example 289], the IC90 stood at 70 nM.

As for `Cn1c(-c2ccc(OC(F)F)c(F)c2F)cnc1C(=O)Nc1ccc(C(=O)N2CCN(C(=O)C3CCN(CCN)CC3)CC2)c(Cl)c1` [Example 292, N-[4-[4-[1-(2-aminoethyl)piperidine-4-carbonyl]piperazine-1-carbonyl]-3-chloro-phenyl]-5-[4-(difluoromethoxy)-2,3-difluoro-phenyl]-1-methyl-imidazole-2-carboxamide trifluoroacetate], the concentration for an effect of 90% (IC90) came to 40 nM.

In the case of `COc1ccc(-c2cnc(C(=O)Nc3ccc(C(=O)N4CCN(C(=O)CN5CCC(O)C5)CC4)c(Cl)c3)n2C)c(F)c1F` (stereo not drawn) [Example 294, N-[3-chloro-4-[4-[2-(3-hydroxypyrrolidin-1-yl)acetyl]piperazine-1-carbonyl]phenyl]-5-(2,3-difluoro-4-methoxy-phenyl)-1-methyl-imidazole-2-carboxamide formate], the IC90 was found to be 40 nM.

Regarding `COc1ccc(-c2cnc(C(=O)Nc3ccc(C(=O)N4CCN(C(=O)CN5CC(O)C5)CC4)c(Cl)c3)n2C)c(F)c1F` [Example 295, N-[3-chloro-4-[4-[2-(3-hydroxyazetidin-1-yl)acetyl]piperazine-1-carbonyl]phenyl]-5-(2,3-difluoro-4-methoxy-phenyl)-1-methyl-imidazole-2-carboxamide formate], the IC90 is 110 nM.

The test is the same for the next values; noted with them: Acinetobacter baumannii, ATCC17961, read-out: ATCC 17961 IC90.
As to `Cn1c(-c2ccc(OCC#N)c(F)c2F)cnc1C(=O)Nc1ccc(C(=O)N2CCN(C(=O)NCCN)CC2)c(Cl)c1` [Example 281, N-(2-Aminoethyl)-4-(2-chloro-4-(5-(4-(cyanomethoxy)-2,3-difluorophenyl)-1-methyl-1H-imidazole-2-carboxamido)benzoyl)piperazine-1-carboxamide 2,2,2-trifluoroacetate], the IC90 is 60 nM.

As for `Cn1c(-c2ccc(OCC#N)c(F)c2F)cnc1C(=O)Nc1ccc(C(=O)N2CCN(CCNCC(N)=O)CC2)c(Cl)c1` [Example 287, N-[4-[4-[2-[(2-amino-2-oxoethyl)amino]ethyl]piper-azine-1-carbonyl]-3-chloro-phenyl]-5-[4-(cyanomethoxy)-2,3-difluoro-phenyl]-1-methyl-imidazole-2-carboxamide formate], the IC90 turned out to be 140 nM.

With `COc1ccc(-c2cnc(C(=O)Nc3ccc(C(=O)N4CCN(C(=O)C5CCN(CC(=O)O)CC5)CC4)c(Cl)c3)n2C)c(F)c1F` [Example 288, 2-[4-[4-[2-Chloro-4-[[5-(2,3-difluoro-4-methoxy-phenyl)-1-methyl-imidazole-2-carbonyl]amino]benzoyl]piperazine-1-carbonyl]-1-piperidyl]acetic acid trifluoroacetate], the IC90 came to 470 nM.

With `COc1ccc(-c2cnc(C(=O)Nc3ccc(C(=O)N4CCN(C(=O)C5CCN(CCN)CC5)CC4)c(Cl)c3)n2C)c(F)c1F` [Example 290, N-[4-[4-[1-(2-Aminoethyl)piperidine-4-carbonyl]piperazine-1-carbonyl]-3-chloro-phenyl]-5-(2,3-difluoro-4-methoxy-phenyl)-1-methyl-imidazole-2-carboxamide formate], the 90% effect concentration (IC90) amounted to 50 nM.

For `COc1ccc(-c2cnc(C(=O)Nc3ccc(C(=O)N4CCN(CC5CCNC5)CC4)c(Cl)c3)n2C)c(F)c1F` (stereo not drawn) [Example 291, N-[3-chloro-4-[4-(pyrrolidin-3-ylmethyl)piperazine-1-carbonyl]phenyl]-5-(2,3-difluoro-4-methoxy-phenyl)-1-methyl-imidazole-2-carboxamide formate], the 90% effect concentration (IC90) came out at 50 nM.

Regarding `COc1ccc(-c2cnc(C(=O)Nc3ccc(C(=O)N4CCN(C(=O)CN5CCCC5)CC4)c(Cl)c3)n2C)c(F)c1F` [Example 293, N-[3-Chloro-4-[4-(2-pyrrolidin-1-ylacetyl)piperazine-1-carbonyl]phenyl]-5-(2,3-difluoro-4-methoxy-phenyl)-1-methyl-imidazole-2-carboxamide formate], the IC90 amounted to 30 nM.

Regarding `COc1ccc(-c2cnc(C(=O)Nc3ccc(C(=O)N4CCN(C(=O)CCOCCNC(=O)CN(C)C)CC4)c(Cl)c3)n2C)c(F)c1F` [Example 299, N-[3-Chloro-4-[4-[3-[2-[[2-(dimethylamino)acetyl]amino]ethoxy]propanoyl]piperazine-1-carbonyl]phenyl]-5-(2,3-difluoro-4-methoxy-phenyl)-1-methyl-imidazole-2-carboxamide], the IC90 worked out at 150 nM.
